Laboratory results: PubChem BioAssay AID1259411 (Chemical Carcinogenesis Research Information System (CCRIS), 2018)
Calls of active or inactive are those of the source. The rule behind the calls is not given here.

System: rodent carcinogenicity bioassays, tumor incidence
Assay: CCRIS carcinogenicity studies
Method in brief: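 Archive of carcinogenicity, mutagenicity, tumor promotion and tumor inhibition results drawn from journals, NCI reports and other sources, expert-reviewed; covers 1985-2011 and is no longer updated.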

Question: Which carcinogen call (Species: MOUSE, Strain/Sex: B6C3F1/FEMALE, Route: ORAL, Dose: 0, 2, 6.67, 20 MMOL/L IN DRINKING WATER FOR 360 D (STUDY DURATION: 360 D), Dose: 0, 2, 6.67, 20 MMOL/L IN DRINKING WATER FOR 360 D (STUDY DURATION: 360 D), Tumor Site: Type of Lesion: LIVER: ADENOMA) does the source give for `O=C(O)C(Cl)Cl` here?
Answer: Its carcinogen call is “active; positive”.

Question: And the carcinogen call (Species: MOUSE, Strain/Sex: B6C3F1/FEMALE, Route: ORAL, Dose: 0, 2, 6.67, 20 MMOL/L IN DRINKING WATER FOR 576 D (STUDY DURATION: 576 D), Dose: 0, 2, 6.67, 20 MMOL/L IN DRINKING WATER FOR 576 D (STUDY DURATION: 576 D), Tumor Site: Type of Lesion: LIVER: ADENOMA, CARCINOMA)?
Answer: The carcinogen call was “active; positive”.

Question: And the carcinogen call (Species: MOUSE, Strain/Sex: B6C3F1/FEMALE, Route: ORAL, Dose: 0, 2 G/L (TOTAL DOSE) IN DRINKING WATER FOR 52 WK (STUDY DURATION: 52 WK))?
Answer: The carcinogen call was “inactive; negative”.

Question: And the carcinogen call (Species: MOUSE, Strain/Sex: B6C3F1/FEMALE, Route: ORAL, Dose: 0, 20 MMOL/L IN DRINKING WATER FOR 24 D FOLLOWED BY 48 D WITHOUT EXPOSURE THIS 72-DAY CYCLE REPEATED FOR THE DURATION OF)?
Answer: Its carcinogen call is “inactive; negative”.

Question: And the carcinogen call (Species: MOUSE, Strain/Sex: B6C3F1/MALE, Route: ORAL, Dose: 0, 0.5, 1.0, 2, 3.5 G/L IN DRINKING WATER FOR 26 WK (STUDY DURATION: 26 WK), Dose: 0, 0.5, 1.0, 2, 3.5 G/L IN DRINKING WATER FOR 26 WK (STUDY DURATION: 26 WK))?
Answer: The carcinogen call was “inactive; negative”.

Question: And the carcinogen call (Species: MOUSE, Strain/Sex: B6C3F1/MALE, Route: ORAL, Dose: 0, 0.5, 1.0, 2, 3.5 G/L IN DRINKING WATER FOR 52 WK (STUDY DURATION: 52 WK), Dose: 0, 0.5, 1.0, 2, 3.5 G/L IN DRINKING WATER FOR 52 WK (STUDY DURATION: 52 WK), Tumor Site: Type of Lesion: LIVER: HEPATOCELLULAR ADENOMA OR CARCINOMA)?
Answer: The carcinogen call was “active; positive”.

Question: And the carcinogen call (Species: MOUSE, Strain/Sex: B6C3F1/MALE, Route: ORAL, Dose: 0, 0.5, 1.0, 2, 3.5 G/L IN DRINKING WATER FOR 78 WK (STUDY DURATION: 78 WK), Dose: 0, 0.5, 1.0, 2, 3.5 G/L IN DRINKING WATER FOR 78 WK (STUDY DURATION: 78 WK), Tumor Site: Type of Lesion: LIVER: HEPATOCELLULAR ADENOMA OR CARCINOMA)?
Answer: The carcinogen call was “active; positive”.

Question: What about the carcinogen call (Species: MOUSE, Strain/Sex: B6C3F1/MALE, Route: ORAL, Dose: 0, 0.5, 1.0, 2, 3.5 G/L IN DRINKING WATER FOR 100 WK (STUDY DURATION: 100 WK), Dose: 0, 0.5, 1.0, 2, 3.5 G/L IN DRINKING WATER FOR 100 WK (STUDY DURATION: 100 WK), Tumor Site: Type of Lesion: LIVER: HEPATOCELLULAR ADENOMA OR CARCINOMA) of the same compound?
Answer: Its carcinogen call is “active; positive”.

Question: And the carcinogen call (Species: MOUSE, Strain/Sex: B6C3F1/MALE, Route: ORAL, Dose: 0, 0.5 G/L DISTILLED DRINKING WATER FOR STUDY DURATION (93 MG/KG/D) (STUDY DURATION: 104 WK), Tumor Site: Type of Lesion: LIVER: HEPATOCELLULAR CARCINOMA, HEPATOCELLULAR ADENOMA)?
Answer: Its carcinogen call is “active; positive”.

Question: And the carcinogen call (Species: MOUSE, Strain/Sex: B6C3F1/MALE, Route: ORAL, Dose: 0, 1, 2 G/L IN DRINKING WATER FOR 52 WK (STUDY DURATION: 52 WK), Dose: 0, 1, 2 G/L IN DRINKING WATER FOR 52 WK (STUDY DURATION: 52 WK), Tumor Site: Type of Lesion: LIVER: ADENOMA OR HEPATOCELLULAR CARCINOMA)?
Answer: Its carcinogen call is “active; positive”.

Question: What about the carcinogen call (Species: MOUSE, Strain/Sex: B6C3F1/MALE, Route: ORAL, Dose: 0, 1 G, 2 G/L (TOTAL DOSE) IN DRINKING WATER FOR 52 WK (STUDY DURATION: 52 WK), Dose: 0, 1 G, 2 G/L (TOTAL DOSE) IN DRINKING WATER FOR 52 WK (STUDY DURATION: 52 WK), Tumor Site: Type of Lesion: LIVER: HEPATOCELLULAR CARCINOMA, ADENOMA, HYPERPLASTIC NODULES) of the same compound?
Answer: The carcinogen call was “active; positive”.

Question: What about the carcinogen call (Species: MOUSE, Strain/Sex: B6C3F1/MALE, Route: ORAL, Dose: 0, 2 G/L (TOTAL DOSE) IN DRINKING WATER FOR 37 WK (STUDY DURATION: 52 WK), Tumor Site: Type of Lesion: LIVER: ADENOMA, HYPERPLASTIC NODULES) of the same compound?
Answer: Its carcinogen call is “active; positive”.

Question: What about the carcinogen call (Species: MOUSE, Strain/Sex: B6C3F1/MALE, Route: ORAL, Dose: 0, 5 G/L (0; 39 MILLIMOLAR) IN DRINKING WATER FOR 61 WK (STUDY DURATION: 61 WK), Dose: 0, 5 G/L (0; 39 MILLIMOLAR) IN DRINKING WATER FOR 61 WK (STUDY DURATION: 61 WK), Tumor Site: Type of Lesion: LIVER: CARCINOMA) of the same compound?
Answer: Its carcinogen call is “active; positive”.

Question: And the carcinogen call (Species: RAT, Strain/Sex: F344/MALE, Route: ORAL, Dose: 0, 0.05, 0.5 G/L IN DRINKING WATER FOR 100 WK (STUDY DURATION: 100 WK), Dose: 0, 0.05, 0.5 G/L IN DRINKING WATER FOR 100 WK (STUDY DURATION: 100 WK), Tumor Site: Type of Lesion: LIVER: HEPATOCELLULAR ADENOMA OR CARCINOMA)?
Answer: Its carcinogen call is “active; positive”.

Question: What about the carcinogen call (Species: RAT, Strain/Sex: F344/MALE, Route: ORAL, Dose: 0, 2.5 G/L IN DRINKING WATER DOSE LOWERED TO 1 G/L AFTER 18 WK (STUDY DURATION: 103 WK), Tumor Site: Type of Lesion: LIVER: HEPATOCELLULAR ADENOMA OR CARCINOMA) of the same compound?
Answer: Its carcinogen call is “active; positive”.

Question: For `CCNNCC`, which carcinogen call (Species: RAT, Route: PRE-NATAL EXP, Tumor Site: Type of Lesion: BRAIN, NERVOUS SYSTEM) is on record?
Answer: Its carcinogen call is “active; positive”.

Question: `c1ccncc1` was tested. Which carcinogen call (Species: MOUSE, Strain/Sex: B6C3F1/FEMALE, Route: ORAL, Dose: 0, 125, 250, 500 PPM IN DRINKING WATER FOR 105 WK (STUDY DURATION: 105 WK), Dose: 0, 125, 250, 500 PPM IN DRINKING WATER FOR 105 WK (STUDY DURATION: 105 WK), Tumor Site: Type of Lesion: LIVER: HEPATOCELLULAR ADENOMA, HEPATOCELLULAR CARCINOMA, OR HEPATOBLASTOMA) did it give?
Answer: Its carcinogen call is “active; positive”.

Question: What about the carcinogen call (Species: MOUSE, Strain/Sex: B6C3F1/MALE, Route: ORAL, Dose: 0, 250, 500, 1000 PPM IN DRINKING WATER FOR 104 WK (STUDY DURATION: 104 WK), Dose: 0, 250, 500, 1000 PPM IN DRINKING WATER FOR 104 WK (STUDY DURATION: 104 WK), Tumor Site: Type of Lesion: LIVER: HEPATOCELLULAR ADENOMA, HEPATOCELLULAR CARCINOMA, OR HEPATOBLASTOMA) of the same compound?
Answer: The carcinogen call was “active; positive”.

Question: And the carcinogen call (Species: RAT, Strain/Sex: F344/FEMALE, Route: ORAL, Dose: 0, 100, 200, 400 PPM IN DRINKING WATER FOR 105 WK (STUDY DURATION: 105 WK), Dose: 0, 100, 200, 400 PPM IN DRINKING WATER FOR 105 WK (STUDY DURATION: 105 WK), Tumor Site: Type of Lesion: MULTIPLE ORGANS: MONONUCLEAR CELL LEUKEMIA)?
Answer: The carcinogen call was “equivocal”.

Question: What about the carcinogen call (Species: RAT, Strain/Sex: F344/MALE, Route: ORAL, Dose: 0, 100, 200, 400 PPM IN DRINKING WATER FOR 104 WK (STUDY DURATION: 104 WK), Dose: 0, 100, 200, 400 PPM IN DRINKING WATER FOR 104 WK (STUDY DURATION: 104 WK), Tumor Site: Type of Lesion: KIDNEY: RENAL TUBULE ADENOMA, RENAL TUBULE ADENOMA OR CARCINOMA) of the same compound?
Answer: The carcinogen call was “active; positive”.

Question: And the carcinogen call (Species: RAT, Strain/Sex: WISTAR/MALE, Route: ORAL, Dose: 0, 100, 200, 400 PPM IN DRINKING WATER FOR 104 WK (STUDY DURATION: 104 WK), Dose: 0, 100, 200, 400 PPM IN DRINKING WATER FOR 104 WK (STUDY DURATION: 104 WK), Tumor Site: Type of Lesion: TESTIS: INTERSTITIAL CELL ADENOMA)?
Answer: The carcinogen call was “equivocal”.

Question: Which carcinogen call (Species: MOUSE, Strain/Sex: SWISS/FEMALE, Route: DERMAL, Dose: 0, 250 MG/KG IN 100 µL DMSO TO INTERSCAPULAR REGION 3/WK FOR 3 WK FOLLOWED 1 WK LATER BY 100 µL ACETONE 3/WK FOR DURATIO) does the source give for `CN(C)C(=O)Nc1ccc(Cl)c(Cl)c1` here?
Answer: The carcinogen call was “inactive; negative”.

Question: And the carcinogen call (Species: Mouse, Strain/Sex: Bor strain NMRI SPF HAN/Female (60/Group), Route: Oral, Dose: 0, 25, 250, 2500 ppm 98.7% diuron in diet for 24 mo, study duration 24 mo, Dose: 0, 25, 250, 2500 ppm 98.7% diuron in diet for 24 mo, study duration 24 mo, Tumor Site: Type of Lesion: Mammary gland: Adenocarcinoma (highest dose only))?
Answer: Its carcinogen call is “active; positive. (ca department of pesticide regulation reviewer evaluates as a possibl”.

Question: And the carcinogen call (Species: Mouse, Strain/Sex: Bor strain NMRI SPF HAN/Male (60/Group), Route: Oral, Dose: 0, 25, 250, 2500 ppm 98.7% diuron in diet for 24 mo, study duration 24 mo, Dose: 0, 25, 250, 2500 ppm 98.7% diuron in diet for 24 mo, study duration 24 mo)?
Answer: Its carcinogen call is “inactive; negative”.

Question: And the carcinogen call (Species: Rat, Strain/Sex: Wistar/Female (50/Group), Route: Oral, Dose: 0, 25, 250, 2500 ppm 98.7% diuron in diet for 2 yr, study duration 2 yr, Dose: 0, 25, 250, 2500 ppm 98.7% diuron in diet for 2 yr, study duration 2 yr, Tumor Site: Type of Lesion: Urinary bladder: Transitional epithelial cell carcinoma (highest dose only))?
Answer: The carcinogen call was “active; positive. (ca department of pesticide regulation reviewer evaluates as a possibl”.

Question: What about the carcinogen call (Species: Rat, Strain/Sex: Wistar/Male (50/Group), Route: Oral, Dose: 0, 25, 250, 2500 ppm 98.7% diuron in diet for 2 yr, study duration 2 yr, Dose: 0, 25, 250, 2500 ppm 98.7% diuron in diet for 2 yr, study duration 2 yr, Tumor Site: Type of Lesion: Urinary bladder: Transitional epithelial cell carcinoma (highest dose only). Kidney: Epithelial cell tumors in renal pel) of the same compound?
Answer: The carcinogen call was “active; positive. (ca department of pesticide regulation reviewer evaluates as a possibl”.
